This is an account of results in patent publication US20260028423A1, “PREDICTION OF AN INCREASE OF DPP3 IN A PATIENT WITH SEPTIC SHOCK” (4TEEN4 Pharmaceuticals GmbH, priority 2022, published 2026).

Read-outs that look alike come from different tables or passages of the source.

In data set [1] the test system is patients with septic shock. In words: AdrenOSS-2 phase II trial in patients with septic shock and elevated adrenomedullin: mortality vs placebo. Type of data set: in vivo, human. Conditions: for HR 28-day all-cause mortality: vs placebo. The protocol:
AdrenOSS-2 is a double-blind, placebo-controlled, randomized, multicenter, proof of concept and dose-finding phase II clinical trial to investigate the safety, tolerability and efficacy of the N-terminal ADM antibody named Adrecizumab in patients with septic shock and elevated adrenomedullin (Geven et al. BMJ Open 2019; 9:e024475). In total, 301 patients with septic shock and bio-ADM concentration >[…] were randomized (2:1:1) to treatment with a single intravenous infusion over approximately 1 hour with either placebo (n=152), adrecizumab […]/kg (n=72) or adrecizumab […]/kg (n=77). All-cause mortality within 28 (90) days after inclusion was 25.8% (34.8%). Mean age was 68.4 years and 61% were male. For the per protocol analysis, n=294 patients remained eligible, and 14-day all-cause mortality rate was 18.5%.
To validate the findings from example 9 and for proof of concept, the different lower thresholds for DPP3 at baseline (day 1) were assessed for efficacy of the anti-ADM antibody (Adrecizumab) therapy in the septic shock population with high bio-ADM from the AdrenOSS-2 study cohort and patients with a DPP3 plasma value above the different lower thresholds were excluded from the analyses. Efficacy of the anti-ADM antibody therapy was specifically assessed to what concerns the mortality endpoint in the placebo and treated arms.
The DPP3 plasma levels in septic shock with high bio-ADM (above […]) patients (n=298) at baseline and in the following 144 h were statistically analysed with the aim of determining a DPP3 threshold at baseline to assess anti-ADM antibody therapy efficacy. Patients above the respective DPP3 plasma thresholds were excluded from the analyses. Different DPP3 plasma concentration thresholds have been applied for 28-day all-cause mortality evaluation using Kaplan-Meier plots comparing anti-ADM antibody therapy vs. placebo. The log-rank test was chosen for showing differences in mortality rates among treatment groups. Hazard ratios (HR) were calculated for each DPP3 plasma concentration threshold to estimate the reduction in mortality risk imposed by anti-ADM antibody therapy relative to placebo.

The subject of data set [2] is mice with CLP-induced sepsis. Conditions: pre-treatment, cited from earlier work.
The subject of data set [3] is patients with septic shock. The experiment in a line: AdrenOSS-2 phase II trial in patients with septic shock and elevated adrenomedullin: mortality vs placebo. Type of data set: in vivo, human.
The conditions of data set [4]: phase I study; cited from earlier work.
The test system of another data set is endotoxemic rats. As to conditions: pre-treatment; cited from earlier work.

For “Adrecizumab: humanized N-terminal anti-ADM antibody; heavy chain SEQ ID NO: 32, light chain SEQ ID NO: 33”, the “28-day all-cause mortality compared to the placebo arm” value in data set [1] (DPP3 below 30 ng/ml (n=195)) was “significantly reduced”; in data set [1] (DPP3 below 50 ng/ml) it was “lower than the placebo arm”; in data set [1] (DPP3 below 50 ng/ml at baseline and continuously low (<50 ng/ml) during the next 144 h), “significantly lower”. Moreover, the “HR 28-day all-cause mortality” value in data set [1] (baseline DPP3 threshold 22 ng/ml) came to 0.258; in data set [1] (baseline DPP3 threshold 30 ng/ml), 0.309; in data set [1] (baseline DPP3 threshold 40 ng/ml) it was 0.568; in data set [3] (baseline DPP3 threshold 50 ng/ml) it was 0.606. The 7-day survival in data set [2] (repeated dose administration, control 0%) is on record as 40%; in data set [2] (single dose, control 10%), 50%. The renal vascular leakage entry (in data set [2]; in the data set with endotoxemic rats) was “attenuated” throughout. The “HR 14-day mortality” value amounted to 0.426 in data set [3] (DPP3 <50 ng/mL on admission); 0.385 in data set [3] (DPP3 <40); 0.449 in data set [3] (DPP3 <60); 0.546 in data set [3] (DPP3 <70); 1.69 in data set [3] (DPP3 >50 ng/mL); 1.35 in data set [3] (DPP3 >40). Moreover, the “HR 14-day mortality” value in data set [3] (DPP3 >60) was 1.62; in data set [3] (DPP3 >70), 1.24. For the same substance, in data set [4], the serious adverse events entry is given as “no serious adverse events were observed”.
